Test results published in US20110092509A1, “Pharmaceutical Composition for Prevention or Treatment of Disease Associated with Tear Reduction” (Kissei Pharmaceutical, Co. Ltd., priority 2007, published 2011).
Structures can show the parent of a compound that is named as a salt.

Tests used:
Format in all cases: in vivo, rabbit
[1] = system: Japanese white rabbits; assay: Measurement of quantity of protein in tear in rabbits (Micro BCA Protein Assay); conditions: for Change in protein in tear: change before vs after instillation of 50 μL of 0.1 w/v % solution to both eyes, anesthetized male rabbits, mean
Experimental: (§1) Three male Japanese white rabbits (about 3 kg) were allocated to each group. Each 50 μL of ½ sulfate salt of Compound 1 (0.1% phosphate buffer solution, pH7.4), terbutaline sulfate (0.1% phosphate buffer solution, pH7.4) or a solvent thereof (a phosphate buffer, pH7.4) was administered to both eyes of the rabbit which was anesthetized with pentobarbital (40 mg/kg, i.v.). Two pieces each of pre-weighed filter paper (Wattman No. 41, 0.22 μm thick, 2.5×15 mm) were inserted to the lower conjunctival sac of the right or left eye, and the difference in weight of the filter papers before and after insertion (post-insertion weight−pre-insertion weight) was defined as the quantity of tear secretion. The quantity of tear secretion was measured for 5 min before drug administration and for 5 min at 5 min after drug administration. Fifty (50) μL of a local anesthetic agent, 0.4% oxybuprocaine hydrochloride (Santen Co.), was instilled into eyes 5 min before each measurement. Tear and the instilled local anesthetic were wiped immediately before the filter paper was inserted.
(§2) Filter papers recovered after each measurement were placed into tubes. A phosphate buffer (pH 7.4) (500 μL) was added to each of the tubes, and they were mixed by vortex mixer for 30 sec. After the filter papers were removed and the mixture was centrifuged at 470×g for 5 min, protein concentrations in supernatant were measured using Micro BCA Protein Assay Reagent Kit (Pierce Co.). The quantity of protein in tear was calculated based on the measured protein concentration and quantity of tear secretion. The difference in the quantity of tear secretion before administration of a solvent, ½ sulfate of Compound 1 or terbutaline sulfate and that after administration was defined as a change in the quantity of tear secretion or protein in tear, respectively. Each milligram of the change in the quantity of tear was taken as 1 μL.

[2] = system: Japanese white rabbits; assay: Measurement of quantity of tear secretion in rabbits (filter paper weight, ocular instillation); conditions: for Tear secretion: change before vs 5 min after instillation of 50 μL of 0.1 w/v % solution (phosphate buffer, pH7.4) to both eyes, anesthetized male rabbits, 5 min measurement, mean
Experimental: as §1, §2

[3] = system: PAS positive goblet cells; assay: Mucin secretion from conjunctiva in rabbits: count of PAS positive goblet cells by impression cytology; conditions: 0.1 w/v % instilled; for Count of PAS-positive goblet cells: percentage of the solvent group, decrease indicates facilitated mucin secretion from conjunctiva, mean
Experimental: In addition, at the same timing of measurement of the quantity of tear secretion, 3 mm diameter cellulose acetate filter paper was pressed on the conjunctiva for 30 sec. by impression cytology method, and periodic acid/Schiff (PAS) staining was performed with the recovered filter papers. After filter papers were cleared and embedded, the number of PAS positive goblet cells existing in a certain visual field of a microscope was counted.
Decreases in the count of PAS positive goblet cells indicate that mucin secretion from the conjunctiva is facilitated. Each value is mean of 4 animals, and ½ sulfate of Compound 1 increased extremely about 30% more in the quantity of tear secretion, about 200% more the quantity of protein in tear and about 50% more mucin secretion from conjunctiva in comparison with the solvent and terbutaline sulfate.

[4] = 0.1 w/v % instilled, rabbits, '% more'

Compound	Effect on quantity of protein in tear (in words) ([1]; 0.1 w/v % instilled, rabbits)	Change in protein in tear [1] [µg]	Effect on quantity of tear secretion (in words) ([2]; 0.1 w/v % instilled, rabbits)	Tear secretion [2] [µL]	Effect on mucin secretion from conjunctiva (in words) ([3]; rabbits)	Count of PAS-positive goblet cells [3] [%]	Increase in quantity of protein in tear in comparison with the solvent and terbutaline sulfate [1, 4]	Increase in quantity of tear secretion in comparison with the solvent and terbutaline sulfate [2, 4]	Increase in mucin secretion from conjunctiva in comparison with the solvent and terbutaline sulfate ([3]; rabbits, '% more')
C[C@H](Cc1ccc2c(c1)OC[C@H](C(=O)O)O2)NC[C@H](O)c1cccc(Cl)c1 [Compound N-5984, 6-[2-(R)-[[2-(R)-(3-chlorophenyl)-2-hydroxyethyl]amino]propyl]-2,3-dihydro-1,4-benzodioxine-2-(R)-carboxylic acid]	extremely increased	2.72	extremely increased	4.42	extremely increased	57.1			
CC(C)(C)NCC(O)c1cc(O)cc(O)c1 (stereo not drawn) [Terbutaline sulfate, reference compound]		1.04		3.80		77.3			
CN(C)C(=O)COc1ccc2c(c1)C[C@@H](NC[C@H](O)c1ccc(O)cc1)CC2 [½ sulfate of Compound 1, 2-[(2S)-2-[[(2R)-2-hydroxy-2-(4-hydroxyphenyl)ethyl]-amino]-1,2,3,4-tetrahydronaphthalen-7-yloxy]-N,N-dimethyl-acetamide]		2.57		4.87		64.8	about 200%	about 30%	about 50%
